The values below come from paper PMC7234998, “Quantification of Colistin in Plasma by Liquid Chromatography-Tandem Mass Spectrometry: Application to a Pharmacokinetic Study” (Scientific Reports, 2020).

Entries after “also recorded” stand apart in the source; their conditions may differ. Where two headings read alike, the source gives them in different places. Positions of bridges follow the written chain, without caps; N, C: chain ends. Non-standard residues stand in square brackets, D forms with d. Residues, ends and D or L forms follow the SMILES beside them. *: point of attachment. Heptanoyl(6-Me) = CC(C)CCCCC(=O)*; X1 = CC[C@H](C)CCCCC(=O)*; Dab = NCC[C@H](N)C(=O)O Some results are limits rather than exact numbers.

The conditions of data set [1]: cited from earlier work. From the text:
Following the validation of the present analytical method, the method was applied to estimate the pharmacokinetic profile of colistin in experimental rats. Choosing the animal species to perform the pharmacokinetic study was based on the similarity of colistin pharmacokinetic profile between animal species and humans. […] The species that has the closest pharmacokinetic profile to humans are rats[43]–[45]. […] This is because of a distribution phase that occurs before the decline in the colistin concentration. This finding is in agreement with previous reports[43],[44],[49]. In the present study, we observed that colistin concentration declined rapidly over 180–240 min which is consistent with earlier findings[45],[49]. […] In the present study, the Vd of colistin was 2.45 ± 1.30 L/kg in ...

A further data set is described as follows: in vivo. The note with it: male, Sprague Dawley, rat, iv, 15 mg/kg.
The nature of data set [2]: Pharmacokinetic study of colistin in rats after IV colistin sulfate, plasma LC-MS/MS, non-compartmental analysis. The note with it: male, rat, 15 mg/kg, SD.
Method: (§1) To 100 μl rat plasma sample, 5 μl of 500 μg/ml IS was added and followed by addition of 400 μl of 50:50 (v/v) methanol-TCA (10%). The samples were vortex-mixed for 1 min, rota-mixed for 10 min at 40 rpm and then centrifuged at 12,000 rpm for 10 min. Following centrifugation, 400 µl of the supernatant was collected and re-extracted with solid phase extraction (SPE) using SPE (Oasis HLB 1 cc, 30 mg) cartridges. First, the cartridges were conditioned with 500 μl of methanol then 500 μl of water. After that, 400 μl of the supernatant was transferred and then washed with 500 μl of water. The tubes were changed and then the samples were eluted with 150 μl of methanol: water: formic acid (80:19:1%, v/v/v) solution. The elution step was repeated twice, and then 250 μl of the solution was transferred to the low volume inserts and 20 μl of this solution was injected into the LC-MS system.
(§2) Male Sprague Dawley® (MSD) rats (21 weeks ± 3 days of age) with a body weight of 450–550 g [supplied by the Animal Resource Center (ARC), Health Sciences Center (HSC), Kuwait University] were used to estimate the pharmacokinetic profile of colistin. The animals (n = 8) were housed in 12 h/12 h light/dark cycle. […] All the animals were subjected to left jugular vein cannulation, IV drug administration, and subsequent blood sampling. All surgical procedures were carried out under strict aseptic conditions. In addition, all surgical instruments and materials were autoclaved, all solutions were sterile and the surgical procedure was performed with the aid of surgical microscope (Leica wild M690). Animal body temperatures were maintained around 37.6 °C (rectal) by placing the animals on an electronic heating pad throughout the surgical procedure as well as the post-surgical recovery period. About 350 µl of rat blood sample was collected from each animal. From this sample, 50 µl of blood sample was transferred to a capillary tube, sealed with the sealant clay at one end and centrifuged to calculate the Packed Cell Volume (PCV); i.e., Hematocrit. The remaining rat blood sample (300 µl) was centrifuged at 9000 X g for 10 min and aliquots of 100 µl of plasma sample was collected and stored at −70 °C pending analysis.
(§3) Colistin was quantified in the biological samples by the present LC-MS/MS method and then the pharmacokinetic parameters (t1/2, CL, Vd, AUC) were estimated by non-compartmental method employing Kinetica® software, version 5.1 (Thermo Fisher Scientific, Waltham, USA).
Data set [3] is described as follows: Long-term stability of colistin in rat plasma QC samples at −70 °C. The note with it: rat plasma, 20 days, LC-MS/MS.
Method: (§4) Colistin sulfate was prepared by dissolving 5.5 mg of the powder in 5 ml water to make a stock solution of 1 mg/ml of colistin. PMB sulfate solution of 1 mg/ml was also prepared by dissolving 5.8 mg of PMB sulfate powder in 5 ml water. Both solutions were stored at −70 °C. Calibration standards and quality controls were prepared by spiking different amounts of colistin sulfate stock solution in plasma. Aliquots of colistin sulfate were further diluted to provide standard concentrations of 0.5, 1, 2, 5, 10, 15, and 20 μg/mL (equivalent to: 78, 156, 312, 780, 1560, 2340 and 3120 ng/ml of colistin A and 353, 706, 1412, 3350, 7060, 10590 and 14120 ng/ml of colistin B) whereas, the concentrations of 1.5, 3.5, 7.5 and 17.5 μg/mL (which contained 234, 546, 1170 and 2730 ng/ml of colistin A and 1059, 2471, 5295 and 12355 ng/ml of colistin B) were considered as quality controls. The calibration standards and quality controls were aliquoted (150 μL) into 0.5 ml Eppendorf tubes and stored at −70 °C pending analysis.
as §1
(§5) Various types of stability tests including freeze-thaw stability and long-term stability were assessed. The freeze-thaw stability test was performed by removing the four QC samples out of the storage temperature (−70 °C) and keeping them at room temperature (25 °C) until thawing and then aliquots of the samples were analyzed. After that, the samples were again returned back for freezing in the same storage conditions for 12 to 24 h. The freeze-thaw cycles were repeated five times and 4 replicates of the analytes were assayed. In addition, a long-term stability test was performed to ensure that the stability of the samples for a time that exceeds the interval between the first sample collection and the last sample analysis. Four aliquots of low, medium and high concentrations (QC) were kept for 20 days in the same temperature used to store samples regularly at the lab (−70 °C) then analyzed and compared to the nominal concentration of freshly prepared QC samples. Moreover, the stability in the autosampler (4 °C) was assessed by keeping the processed samples under this condition and assayed periodically at different times for up to 24 hours. In addition, benchtop stability test was performed by keeping the samples at room temperature (25 °C) for six hours and analyzing them during this time. The mean value results of stability tests were calculated and compared to the nominal concentrations.
A short description of data set [4]: Benchtop stability of colistin in rat plasma samples at room temperature. The note with it: rat plasma, stored for 6 hours at room temperature (25 °C), LC-MS/MS.
Method: as §4, §1, §5
Data set [5] is described as follows: Freeze-thaw stability of colistin in rat plasma QC samples. The note with it: five freeze-thaw cycles, −70 °C to room temperature.
Method: as §4, §1, §5
A short description of data set [6]: Autosampler stability of processed colistin rat plasma samples at 4 °C.
Method: as §4, §1, §5
The conditions of data set [7]: cited from earlier work. The protocol:
However, colistin sulphate has been reported to be well absorbed after an oral administration in infants. […] The standards and quality control samples concentrations were selected based on the therapeutic range of colistin. The expected colistin serum levels according to the antimicrobial reference laboratory assay service are 5–15 mg/L and 2–4 mg/L for the peak and tough concentrations, respectively. […] Choosing the animal species to perform the pharmacokinetic study was based on the similarity of colistin pharmacokinetic profile between animal species and humans. […] The species that has the closest pharmacokinetic profile to humans are rats[43]–[45].
This is another data set of the same source.

In general, clearance refers to the volume of plasma or blood freed of the substance per unit of time. Low values mean a low capacity for elimination, high ones a high capacity for elimination. In general, AUC(0-inf) refers to the area under the concentration-time curve extrapolated to infinity. The low end stands for less exposure, the high end for more exposure. One may read the Vd as the apparent volume that relates the amount in the body to the concentration in plasma or blood. The half-life is how long it takes for the measured level to halve.

Method for in vivo: as §1, §2, §3

For the molecule `CC(C)CCCCC(=O)N[C@@H](CCN)C(=O)N[C@H](C(=O)N[C@@H](CCN)C(=O)N[C@H]1CCNC(=O)[C@H]([C@@H](C)O)NC(=O)[C@H](CCN)NC(=O)[C@H](CCN)NC(=O)[C@H](CC(C)C)NC(=O)[C@@H](CC(C)C)NC(=O)[C@H](CCN)NC1=O)[C@@H](C)O` [Colistin B, colistin B] ({Heptanoyl(6-Me)}-[Dab]T[Dab][Dab][Dab][dL]L[Dab][Dab]T; lactam 4-C), in data set [1] (rat, in vivo), the “CL of the individual components” value is on record as 3.05 ± 0.62 mL/min/kg and the “t1/2 of the major components” value is 1.52 ± 0.342 h. The same molecule had a level at 0.5 h in the data set “in vivo” of 2640 ng/mL.

As to `CC[C@H](C)CCCCC(=O)N[C@@H](CCN)C(=O)N[C@H](C(=O)N[C@@H](CCN)C(=O)N[C@H]1CCNC(=O)[C@H]([C@@H](C)O)NC(=O)[C@H](CCN)NC(=O)[C@H](CCN)NC(=O)[C@H](CC(C)C)NC(=O)[C@@H](CC(C)C)NC(=O)[C@H](CCN)NC1=O)[C@@H](C)O` [colistin] (X1-[Dab]T[Dab][Dab][Dab][dL]L[Dab][Dab]T; lactam 4-C), the clearance in data set [2] (Sprague Dawley (MSD)) came to 25.5 ± 10.6 mL/min/kg. In addition, the AUC(0-inf) in data set [2] (Sprague Dawley) is 10500 ng·h/mL. Besides, the Vd in data set [2] (Sprague Dawley) is 2.45 ± 1.29 L/kg; in data set [1] (rats, earlier report) it was 0.50 ± 0.06 L/kg; in data set [1] (rats), 0.496 ± 0.06 L/kg; in data set [7] (humans), 12.4 L. Further, the half-life in data set [2] (Sprague Dawley) is 1.07 ± 0.605 h. Further, the t1/2 in data set [1] (rats, another study) is 0.928 ± 0.322 h; in data set [1] (rats, dose ranging study, dose 15 mg/kg), 0.54 ± 0.0833 h; in data set [1] (rats), 1.24 ± 0.22 h; in data set [7] (humans), 3 h. Further, the “AUC0-∞” value in data set [1] (rats, mean ± S.D., other investigators, SD) was 2600 ± 470 ng·h/mL. In addition, the “total body clearance (CL)” value in data set [1] (rats, reported by other investigators) was 11.7 ± 1.8 mL/min/kg. Further, the CLR in data set [1] (rats) was 5.2 ± 0.4 mL/min/kg. Further, the “long-term stability (in words)” value in data set [3] is given as “stable; also recorded: acceptable”. Also, the “benchtop (room temperature) stability (in words)” value is recorded as “in-stability” in data set [4] and “not stable” in data set [4] (listed as Colistin). Further, the “deviation of resulting concentrations from nominal after freeze-thaw” value in data set [5] (plasma samples) is given as ≤ 15%. Also, the “freeze-thaw stability (in words)” value in data set [5] (rat plasma, LC-MS/MS) was “stable; also recorded: acceptable”. In addition, in data set [6] (autosampler environment, 4 °C), the “deviation of result at each level from nominal concentration in the autosampler” value is ≤ 15%. In addition, the “autosampler stability (in words)” value in data set [6] (processed samples, autosampler 4 °C, up to 24 hours, LC-MS/MS) is “stable; also recorded: acceptable”. Moreover, the minimum concentration in data set [7] (Markou and colleagues, steady state) is listed as 1.03 ± 0.44 mg/L. Further, the “maximum steady state concentration” value in data set [7] (Markou and colleagues) is reported as 2.93 ± 1.24 mg/L. For the same molecule, the elimination half-life in data set [7] (colistin, eliminated extra-renally) is listed as 3 h.
